Results published in patent US5010005A, “Bio-oxidation of high alcohols in non-aqueous reaction media” (priority 1989, dated 1991).
Values belong to the compound of their own block, whether it stands above or below them.

Legend:
[1] = biological target: T1, purified alcohol oxidase from P. pastoris (Komagataella phaffii, UniProt P04842); settings: Patel et al; cited from earlier work
T1 sequence (P04842 2-663 limits assumed): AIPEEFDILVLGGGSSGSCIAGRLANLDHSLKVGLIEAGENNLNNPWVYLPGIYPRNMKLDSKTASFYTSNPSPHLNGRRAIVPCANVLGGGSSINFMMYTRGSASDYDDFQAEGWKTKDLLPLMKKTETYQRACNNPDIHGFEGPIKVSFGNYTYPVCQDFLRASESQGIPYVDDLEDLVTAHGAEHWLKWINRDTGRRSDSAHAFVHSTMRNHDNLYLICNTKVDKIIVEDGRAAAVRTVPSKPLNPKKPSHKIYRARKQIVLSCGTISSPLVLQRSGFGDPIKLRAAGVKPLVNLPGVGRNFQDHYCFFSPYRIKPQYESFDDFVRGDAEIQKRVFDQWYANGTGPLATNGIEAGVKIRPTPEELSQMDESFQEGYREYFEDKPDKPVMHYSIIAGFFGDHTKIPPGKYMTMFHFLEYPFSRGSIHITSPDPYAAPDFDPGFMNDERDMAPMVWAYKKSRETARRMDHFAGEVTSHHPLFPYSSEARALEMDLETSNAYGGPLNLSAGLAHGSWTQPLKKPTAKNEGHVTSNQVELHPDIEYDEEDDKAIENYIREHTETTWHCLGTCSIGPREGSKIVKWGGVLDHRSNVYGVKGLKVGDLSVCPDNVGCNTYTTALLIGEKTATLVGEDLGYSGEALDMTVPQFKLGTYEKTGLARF

[2] = test system: whole cells of Pichia pastoris; test: Conversion of alcohols by whole cells of Pichia pastoris in aqueous reaction media; type: cell-based; settings: for Oxidation by methanol-induced alcohol oxidase from P. pastoris: aqueous reaction media
Experimental: Pichia pastoris was obtained from the American Type Culture Collection, Rockville, Maryland, U.S.A. (ATCC 28485). The growth and maintenance medium consisted of: KH2 PO4 2.6 g/L; K2 HPO4 0.3 g/L; (NH4)2 SO4 1.5 g/L; MgSO4.7 ·H2 O 0.3 g/L; Difco yeast extract 1.9 g/L; FeSO4 ·7H2 O 1 mg/L; CuSO4 ·5H2 O 5 μg/L; H3 BO3 10 μg/L; MnSO4 ·H2 O 10 μg/L; ZnSO4 ·7H2 O 70 μg/L: NaMoO4 ·2H2 O 10 μg/L. After the medium was autoclaved and cooled, methanol (10 g/L) and a vitamin solution (J.P. van der Walt and A.E. van Kerken, Antonie van Leeuwenkoek 27: 81-90, 1961) (2 mL) were added. Growth of the organism was carried out in Erlenmeyer shake flasks at 30° C. on a reciprocal shaker (200 rpm). After 72 hrs growth, biomass was harvested by centrifugation (4000 g, 5 min) washed with 0.1 M phosphate buffer pH 8, and resuspended in 0.5 M Tris buffer (pH 8).
Unless otherwise stated, the reaction conditions for whole cell systems in aqueous solution (0.5M Tris pH 8) were as follows: 25 ml of the biomass suspension was dispensed into 125 mL serum vials and the substrate was added to the concentration listed in Table 1. The final biomass concentration was 5 g/L. The vials were flushed with oxygen, capped and sealed to prevent loss of reactants or products from the system. The vials were pressurized with oxygen (15 psig) and shaken (200 rpm) at 30° C. during the reaction. A sample was withdrawn following the reaction time listed in Table 1 and centrifuged (15000 g, 1 min) to remove biomass and stop the reaction. The supernatant liquid was diluted 1:1 with internal standard for gas chromatography. In some cases, a portion of the sample was extracted with 9 volumes of warm (50° C.) water, to solubilize insoluble separated product, mixed thoroughly by vortexing, and then diluted 1:1 with internal standard before assaying by gas chromatography. In all experiments the vials were regularly repressurized with oxygen throughout the reaction period.
The substrates and products were assayed using a Hewlett-Packard 5790A gas chromatograph equipped with a Chromasorb 101 packed column. The carrier gas was helium and the column was run isothermally at 220° C. For aqueous reaction systems the internal standard was isopropyl alcohol (20 g/L). In non-aqueous systems octanol (20 g/L) was dissolved in the appropriate solvent and used as internal standard.

[3] = biological target: T2, alcohol oxidase (Komagataella phaffii, UniProt P04842); test: Conversion of benzyl alcohol to benzaldehyde by purified alcohol oxidase in aqueous two phase systems; type: biochemical, Pichia pastoris; settings: for Reaction Rate: benzyl alcohol 20 g/L
T2 construct: purchased Provesta Corp. (Bartlesville, Oklahoma)
T2 sequence (P04842 2-663 limits assumed): T1 sequence (P04842 2-663 limits assumed)
Experimental: To determine reaction rates, benzyl alcohol was presolubilized in the solvent of interest to a final concentration of 20 g/L unless otherwise specified. Alcohol oxidase and catalase were premixed in an activity ratio of 1300 U catalase activity per unit of alcohol oxidase activity. In some cases the enzyme mixture was diluted with 0.1 M phosphate buffer (pH 8) to determine the effect of changes in phase volume ratio. The enzyme mixture was then added to the solvent-substrate reaction fluid in a 125 mL serum vial. Reaction conditions were otherwise identical to those described above.
The purified alcohol oxidase was obtained from Provesta Corp. (Bartlesville, Oklahoma) and consisted of a concentrated (35 g/L) protein solution with a specific activity of 14.7 International Enzyme Units (IEU) per milligram of protein. One IEU is defined as the amount of enzyme which will oxidize one micomole of ethanol to acetaldehyde per minute at pH 7.5 at 25° C. The enzyme was stored frozen (-20° C.) until used. Beef liver catalase was obtained from Boehringer Mannheim Inc. as a 20 g/L suspension with a specific activity of 65000 U/mg. It was stored at 4° C.
Benzyl alcohol to benzaldehyde conversion was described in part a) except the percent aqueous phase was varied between 1and 5%.

[4] = test system: alkane-induced alcohol oxidase; settings: Kemp et al; cited from earlier work
[5] = type: physicochemical
Experimental: The partitioning of benzyl alcohol and benzaldehyde between 0.1 M phosphate buffer and each solvent used were measured as follows: benzyl alcohol (10 g/L) and benzaldehyde (10 g/L) were dissolved in each of the solvents of interest. Ten millilitres of each solvent were then dispensed into a test tube containing 10 ml of 0.1 M phosphate buffer (pH 8). The tubes were capped, vortexed, and the mixture was allowed to equilibrate for 1 hr at 30° C. Both phases were then assayed for benzaldehyde and benzyl alcohol as described above. Partition coefficients were expressed as the ratio of the concentration of the solute of interest in the aqueous phase: the concentration of the same compound in the organic phase.
The partition coefficients were determined as in Example 2 but expressed as solute (g/L) in organic phase/solute (g/L) in aqueous phase (see Table 4).

[6] = test system: P. pastoris; test: Bio-oxidation of hexanol to hexanal by P. pastoris in two-phase aqueous (5% v/v)/organic systems; type: cell-based, Pichia pastoris; settings: for Hexanal produced: aqueous phase 5% v/v, 24 h incubation
[7] = test system: whole cells of Pichia pastoris; test: Conversion of higher alcohols by whole cells of Pichia pastoris in two-phase (hexane/water) reaction system; type: cell-based; settings: alcohol 30 g/L
Experimental: Growth of the organism was carried out in Erlenmeyer shake flasks at 30° C. on a reciprocal shaker (200 rpm). After 72 hrs growth, biomass was harvested by centrifugation (4000 g, 5 min) washed with 0.1 M phosphate buffer pH 8, and resuspended in 0.5 M Tris buffer (pH 8).
The method of conversion of higher alcohols using whole cells in a two-phase reaction system was as follows. One gram of Pichia pastoris cell paste (pellet resulting from a 10 minute, 9154 g centrifugation) was placed in a 125 ml serum vial and dispersed in 2 ml of H2 O (aqueous phase).
Then 48 ml of hexane containing the substrate (concentration in Table 1) were added to form the organic phase. The reaction was conducted as described above. Samples from the organic phase were withdrawn at the indicated times (Table 1) and the concentration of aldehyde product determined by gas chromatography.
The carrier gas was helium and the column was run isothermally at 220° C. For aqueous reaction systems the internal standard was isopropyl alcohol (20 g/L). In non-aqueous systems octanol (20 g/L) was dissolved in the appropriate solvent and used as internal standard.

SMILES: CC(N)CO (centres unmarked) [2-amino-1-propanol]
Oxidation by purified alcohol oxidase [1]: unable to oxidize

SMILES: NCCO [2-amino-ethanol]
Oxidation by purified alcohol oxidase [1]: unable to oxidize

SMILES: OCc1ccccc1 [benzyl alcohol]
inhibition at 20000 µg/mL ([2]; Komagataella pastoris, read-out: Reduction of reaction rate by substrate inhibition): ~60% | Substrate concentration at which strong inhibition of the reaction is observed ([2]; whole cells in aqueous reaction fluid): greater than 20 g/L | Cumulative benzaldehyde production Concn. ([3]; enzyme 1.0 U/mL, time 2.0 h): 2.1 g/L | Cumulative benzaldehyde production Concn. ([3]; enzyme 1.0 U/mL, time 4.0 h): 2.8 g/L | Cumulative benzaldehyde production Concn. ([3]; enzyme 1.0 U/mL, time 8.0 h): 17 g/L | Cumulative benzaldehyde production Concn. ([3]; enzyme 2.5 U/mL, time 2.0 h): 5.1 g/L | Cumulative benzaldehyde production Concn. ([3]; enzyme 2.5 U/mL, time 4.0 h): 6.3 g/L | Cumulative benzaldehyde production Concn. ([3]; enzyme 5.0 U/mL, time 2.0 h): 9.9 g/L | Cumulative benzaldehyde production Concn. ([3]; enzyme 5.0 U/mL, time 4.0 h): 13 g/L | Cumulative benzaldehyde production Concn. ([3]; enzyme 7.5 U/mL, time 2.0 h): 13 g/L | Cumulative benzaldehyde production Concn. ([3]; enzyme 7.5 U/mL, time 4.0 h): 19 g/L | Cumulative benzaldehyde production Concn. ([3]; enzyme 10 U/mL, time 2.0 h): 15 g/L | Cumulative benzaldehyde production Concn. ([3]; enzyme 10 U/mL, time 4.0 h, fed-batch addition of benzyl alcohol): 22 g/L | Cumulative benzaldehyde production Concn. ([3]; enzyme 15 U/mL, time 2.0 h): 17 g/L | Cumulative benzaldehyde production Concn. ([3]; enzyme 15 U/mL, time 4.0 h, fed-batch addition of benzyl alcohol): 32 g/L | Cumulative benzaldehyde production Concn. ([3]; enzyme 15 U/mL, time 8.0 h, fed-batch addition of benzyl alcohol): 45 g/L | Initial rate of benzaldehyde production ([3]; enzyme concentration 1.0 U/mL (0.06 g/L)): 1.4 g/L h | Initial rate of benzaldehyde production ([3]; enzyme concentration 2.5 U/mL (0.16 g/L)): 3.4 g/L h | Initial rate of benzaldehyde production ([3]; enzyme concentration 5.0 U/mL (0.31 g/L)): 6.3 g/L h | Initial rate of benzaldehyde production ([3]; enzyme concentration 7.5 U/mL (0.47 g/L)): 8.6 g/L h | Initial rate of benzaldehyde production ([3]; enzyme concentration 10 U/mL (0.63 g/L)): 10.3 g/L h | Initial rate of benzaldehyde production ([3]; enzyme concentration 15 U/mL (0.94 g/L)): 11.7 g/L h | Relative Reaction Rate ([3]; reaction fluid Chloroform): 0.03 | Reaction Rate ([3]; reaction fluid Chloroform): 0.07 g/L h | Relative Reaction Rate ([3]; reaction fluid Ether): 0.19 | Reaction Rate ([3]; reaction fluid Ether): 0.39 g/L h | Relative Reaction Rate ([3]; reaction fluid Ethylacetate): 0.04 | Reaction Rate ([3]; reaction fluid Ethylacetate): 0.09 g/L h | Relative Reaction Rate ([3]; reaction fluid Hexane): 1.0 | Reaction Rate ([3]; reaction fluid Hexane): 2.08 g/L h | Relative Reaction Rate ([3]; reaction fluid Toluene): 0.49 | Reaction Rate ([3]; reaction fluid Toluene): 1.01 g/L h | Substrate concentration up to which optimum reaction rates (85% of Vmax) could be maintained ([3]; two phase system, hexane): up to 54 g/L

SMILES: OC1CCCCC1 [cyclohexanol]
Oxidation by purified alcohol oxidase [1]: unable to oxidize

SMILES: CCCCCCCCCCO [decanol]
Oxidation by methanol-induced alcohol oxidase from P. pastoris [2]: unable to oxidize

SMILES: CCCCCCCCCCCCO [dodecanol]
Substrate specificity of alkane-induced alcohol oxidase [4]: optimum activity

SMILES: CCCCCCCO [heptanol]
Oxidation by methanol-induced alcohol oxidase from P. pastoris [2]: unable to oxidize

Partition coefficient [5]: greater than unity
SMILES: CCCCCC=O [hexanal]

SMILES: CCCCCCO [hexanol]
Hexanal produced ([6]; Chloroform): 1.0 g/L | Hexanal produced ([6]; Ether): 2.7 g/L | Hexanal produced ([6]; Ethyl acetate): 2.4 g/L | Hexanal produced ([6]; Hexane): 8.7 g/L | Hexanal produced ([6]; Toluene): 2.4 g/L | Hexanol concentration completely oxidized ([6]; water-hexane two-phase system): up to 10 g/L | Aldehyde concentration, 2-phase ([7]; reaction time 6 h): 10.6 g/L | Aldehyde concentration, 2-phase ([7]; reaction time 24 h): 12.4 g/L | Aldehyde concentration, aqueous ([2]; alcohol 30 g/L, reaction time 12 h): 5.0 g/L

SMILES: CCCCCCCCCO [nonanol]
Oxidation by methanol-induced alcohol oxidase from P. pastoris [2]: unable to oxidize

SMILES: CCCCCCCCO [octanol]
Oxidation by methanol-induced alcohol oxidase from P. pastoris [2]: unable to oxidize

SMILES: CC(C)(C)O [tert butanol]
Oxidation by purified alcohol oxidase [1]: unable to oxidize

SMILES: CCCCCCCCCCCO [undecanol]
Oxidation by methanol-induced alcohol oxidase from P. pastoris [2]: unable to oxidize
